Biological target: T1, cloned human CRF-R1 receptors (Homo sapiens, UniProt P34998)
T1 construct: the coding region was amplifies by PCR from start to stop codons; expressed in transfected cells; membranes
T1 sequence (P34998 24-415): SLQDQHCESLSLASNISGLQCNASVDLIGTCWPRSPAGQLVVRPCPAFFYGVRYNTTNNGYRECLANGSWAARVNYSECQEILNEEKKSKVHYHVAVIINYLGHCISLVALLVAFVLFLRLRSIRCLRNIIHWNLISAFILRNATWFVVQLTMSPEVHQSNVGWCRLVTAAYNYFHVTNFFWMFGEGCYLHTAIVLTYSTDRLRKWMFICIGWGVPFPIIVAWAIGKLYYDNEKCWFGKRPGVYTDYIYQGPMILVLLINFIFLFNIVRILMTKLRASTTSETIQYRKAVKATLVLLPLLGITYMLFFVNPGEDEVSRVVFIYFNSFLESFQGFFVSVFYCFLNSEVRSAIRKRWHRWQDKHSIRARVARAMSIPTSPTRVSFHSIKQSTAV
Experiment: CRF-R1 receptor binding assay (inhibition of 125I-ovine-CRF binding to cell membranes)
Conditions: membranes of 293EBNA cells transfected with hCRFR1, class d = reported as percent inhibition at 10 μM, figures not given, read-out: activity (Ki class in the CRF assays)
Description: The following is a description of the isolation of cell membranes containing cloned human CRF-R1 receptors for use in a standard binding assay as well as a description of the assay itself.
Messenger RNA was isolated from human hippocampus. […]. The mRNA was reverse transcribed using oligo (dt) 12–18 and the coding region was amplifies by PCR from start to stop codons. The resulting PCR fragment was cloned into the EcoRV site of pGEMV, from whence the insert was reclaimed using XhoI+XbaI and cloned into the XhoI+XbaI sites of vector pm3 as (which contains a CMV promoter, the SV′t′ splice and early poly A signals, an Eptein-Barr viral origin of replication, and a hygromycin selectable marker). The resulting expression vector, called phchCRFR was transfected in 293EBNA cells and cells retaining the episome were selected in the presence of […] hygromycin. Cells surviving 4 weeks of selection in hygromycin were pooled, adapted to growth in suspension and used to generate membranes for the binding assay described below. Individual aliquots containing approximately 1×10^8 of the suspended cells were then centrifuged to form a pellet and frozen. For the binding assay a frozen pellet described above containing 293EBNA cells transfected with hCRFR1 receptors is homogenized in 10 mL of ice cold tissue buffer (50 mM HEPES buffer pH 7.0, containing 10 MM MgCl2, 2 mM EGTA, 1 μg/mL apotinin, 1 μg/mL leupeptin and 1 μg/mL pepstatin). The homoginate is centrifuged at 40,000×g for 12 min and the resulting pellet rehomogenized in 10 mL of tissue buffer. After another centrifugation at 40,000×g for 12 min, the pellet is resuspended to a protein concentration of 360 μg/mL to be used in the assay.
Binding assays are performed in 96 well plates; each well having a 300 μL capacity. To each well is added 50 μL of test drug dilutions (final concentration of drugs range from 10^−10–10^−5 M), 100 μL of ^125I-ovine-CRF (^125I-o-CRF) (final concentration 150 pM) and 150 μL of the cell homoginate described above. Plates are then allowed to incubate at room temperature for 2 hours before filtering the incubate over GF/F filters (presoaked with 0.3% polyethyleneimine) using an appropriate cell harvester. Filters are rinsed 2 times with ice cold assay buffer before removing individual filters and assessing them for radioactivity on a gamma counter.
Curves of the inhibition of ^125I-o-CRF binding to cell membranes at various dilutions of test drug are analyzed by the iterative curve fitting program LIGAND [P. J. Munson and D. Rodbard, Anal. Biochem., 107:220 (1980), which provides Ki values for inhibition which are then used to assess biological activity. […]
Messenger RNA was isolated from human hippocampus. The mRNA was isolated from human hippocampus. The mRNA was reverse transcribed using oligo (dt) 12–18 and the coding region was amplifies by PCR from start to stop codons. The resulting PCR fragment was cloned into the EcoRV site of pGEMV, from whence the insert was reclaimed using XhoI+XbaI and cloned into the XhoI+XbaI sites of vector pm3 as (which contains a CMV promoter, the SV′t′ splice and early poly A signals, an Eptein-Barr viral origin of replication, and a hygromycin selectable marker). The resulting expression vector, called phchCRFR was transfected in 293EBNA cells and cells retaining the episome were selected in the presence of […] hygromycin. Cells surviving 4 weeks of selection in hygromycin were pooled, adapted to growth in suspension and used to generate membranes for the binding assay described below. […]
A frozen pellet described above containing 293EBNA cells transfected with hCRFR1 receptors or the rat frontal cortex tissue dissected from frozen rat brains was prepared as the source of membranes expressing CRF1 receptors used in binding assays. […]

Row | Structure (SMILES) | Ki
1 | C=CCOc1ccc(S(=O)(=O)c2ccc(C)nc2Nc2c(C)cc(C)cc2C)cc1 [Example 13, [3-(4-Allyloxybenzenesulfonyl)-6-methylpyridin-2-yl]-(2,4,6-trimethylphenyl)-amine] | 100 to 500 nM
2 | Cc1cc(C)c(Nc2nc(C)ccc2S(=O)(=O)c2ccc(C)c(C)c2)c(C)c1 [Example 38, [3-(3,4-Dimethylbenzenesulfonyl)-6-methylpyridin-2-yl]-(2,4,6-trimethylphenyl)-amine] | 100 to 500 nM
3 | COc1ccc(S(=O)(=O)c2ccc(C)nc2Nc2c(C)cc(C)cc2C)cc1OC [Example 39, [3-(3,4-Dimethoxybenzenesulfonyl)-6-methylpyridin-2-yl]-(2,4,6-trimethylphenyl)-amine] | 500 to 5000 nM
4 | Cc1cc(C)c(Nc2nc(C)ccc2S(=O)(=O)c2ccc(Cl)c(Cl)c2)c(C)c1 [Example 40, [3-(3,4-Dichlorobenzenesulfonyl)-6-methylpyridin-2-yl]-(2,4,6-trimethylphenyl)-amine] | 100 to 500 nM
5 | Cc1ccc(S(=O)(=O)c2ccc(C)nc2Nc2c(C)cc(C)cc2C)cc1 [Example 41, [6-Methyl-3-(toluene-4-sulfonyl)-pyridin-2-yl]-(2,4,6-trimethylphenyl)-amine] | 100 to 500 nM
6 | CCc1ccc(S(=O)(=O)c2ccc(C)nc2Nc2c(C)cc(C)cc2C)cc1 [Example 42, [3-(4-Ethylbenzenesulfonyl)-6-methylpyridin-2-yl]-(2,4,6-trimethylphenyl)-amine] | ≤ 100 nM
7 | Cc1cc(C)c(Nc2nc(C)ccc2S(=O)(=O)c2ccc(C(C)C)cc2)c(C)c1 [Example 43, [3-(4-Isopropylbenzenesulfonyl)-6-methylpyridin-2-yl]-(2,4,6-trimethylphenyl)-amine] | 100 to 500 nM
8 | Cc1cc(C)c(Nc2nc(C)ccc2S(=O)(=O)c2ccc(OC(F)(F)F)cc2)c(C)c1 [Example 44, [6-Methyl-3-(4-trifluoromethoxybenzenesulfonyl)-pyridin-2-yl]-(2,4,6-trimethylphenyl)-amine] | 100 to 500 nM
9 | Cc1cc(C)c(Nc2nc(C)ccc2S(=O)(=O)c2ccc(F)cc2)c(C)c1 [Example 45, [3-(4-Fluorobenzenesulfonyl)-6-methylpyridin-2-yl]-(2,4,6-trimethylphenyl)-amine] | 100 to 500 nM
10 | C#Cc1ccc(S(=O)(=O)c2ccc(C)nc2Nc2c(C)cc(C)cc2C)cc1 [Example 47, [3-(4-Ethynylbenzenesulfonyl)-6-methylpyridin-2-yl]-(2,4,6-trimethylphenyl)-amine] | ≤ 100 nM
11 | Cc1cc(C)c(Nc2nc(C)ccc2S(=O)(=O)c2ccc(-c3ccccc3)cc2)c(C)c1 [Example 48, [3-(Biphenyl-4-sulfonyl)-6-methylpyridin-2-yl]-(2,4,6-trimethylphenyl)-amine] | ≤ 100 nM
12 | COc1ccccc1-c1ccc(S(=O)(=O)c2ccc(C)nc2Nc2c(C)cc(C)cc2C)cc1 [Example 49, [3-(2′-Methoxybiphenyl-4-sulfonyl)-6-methylpyridin-2-yl]-(2,4,6-trimethylphenyl)-amine] | ≤ 100 nM
13 | Cc1cc(C)c(Nc2nc(C)ccc2S(=O)(=O)c2ccc(CO)cc2)c(C)c1 [Example 50, {4-[6-Methyl-2-(2,4,6-trimethylphenylamino)-pyridine-3-sulfonyl]-phenyl}-methanol] | 100 to 500 nM
14 | Cc1cc(C)c(NCc2ccc(S(=O)(=O)c3ccc(C)nc3Nc3c(C)cc(C)cc3C)cc2)c(C)c1 [Example 51, (6-Methyl-3-{4-[(2,4,6-trimethylphenylamino)-methyl]-benzenesulfonyl}-pyridin-2-yl)-(2,4,6-trimethylphenyl)-amine] | 500 to 5000 nM
15 | Cc1cc(C)c(Nc2nc(C)ccc2S(=O)(=O)c2ccc(C=O)cc2)c(C)c1 [Example 52, 4-[6-Methyl-2-(2,4,6-trimethylphenylamino)-pyridine-3-sulfonyl]-benzaldehyde] | 500 to 5000 nM
16 | Cc1cc(C)c(Nc2nc(C)ccc2S(=O)(=O)c2ccc(C(O)c3ccccc3)cc2)c(C)c1 (centres unmarked) [Example 53, {4-[6-Methyl-2-(2,4,6-trimethylphenylamino)-pyridine-3-sulfonyl]-phenyl}-phenyl-methanol] | 100 to 500 nM
17 | C=CCOc1cccc(S(=O)(=O)c2ccc(C)nc2Nc2c(C)cc(C)cc2C)c1 [Example 59, [3-(3-Allyloxybenzenesulfonyl)-6-methylpyridin-2-yl]-(2,4,6-trimethylphenyl)-amine] | 100 to 500 nM
18 | Cc1cc(C)c(Nc2nc(C)ccc2S(=O)(=O)c2cccc(OCc3ccccc3)c2)c(C)c1 [Example 60, [3-(3-Benzyloxybenzenesulfonyl)-6-methylpyridin-2-yl]-(2,4,6-trimethylphenyl)-amine] | 100 to 500 nM
19 | Cc1cc(C)c(Nc2nc(C)ccc2S(=O)(=O)c2cccc(OCc3ccc(F)cc3)c2)c(C)c1 [Example 61, {3-[3-(4-Fluorobenzyloxy)-benzenesulfonyl]-6-methylpyridin-2-yl}-(2,4,6-trimethylphenyl)-amine] | 100 to 500 nM
20 | COc1cccc(COc2cccc(S(=O)(=O)c3ccc(C)nc3Nc3c(C)cc(C)cc3C)c2)c1 [Example 62, {3-[3-(3-Methoxybenzyloxy)-benzenesulfonyl]-6-methylpyridin-2-yl}-(2,4,6-trimethylphenyl)-amine] | 100 to 500 nM
21 | Cc1cc(C)c(Nc2nc(C)ccc2S(=O)(=O)c2cccc(OCc3ccc(Cl)nc3)c2)c(C)c1 [Example 64, {3-[3-(6-Chloropyridin-3-ylmethoxy)-benzenesulfonyl]-6-methylpyridin-2-yl}-(2,4,6-trimethylphenyl)-amine] | 100 to 500 nM
22 | Cc1cc(C)c(Nc2nc(C)ccc2S(=O)(=O)c2cccc(OCc3cc(Cl)nc(Cl)c3)c2)c(C)c1 [Example 65, {3-[3-(2,6-Dichloropyridin-4-ylmethoxy)-benzenesulfonyl]-6-methylpyridin-2-yl}-(2,4,6-trimethylphenyl)-amine] | 100 to 500 nM
23 | CCc1ccc(S(=O)(=O)c2ccc(C)nc2Nc2ccc(C)cc2C)cc1 [Example 66, (2,4-Dimethylphenyl)-[3-(4-ethylbenzenesulfonyl)-6-methylpyridin-2-yl]-amine] | 100 to 500 nM
24 | CCc1ccc(S(=O)(=O)c2ccc(C)nc2Nc2ccc(OC)cc2C)cc1 [Example 67, [3-(4-Ethylbenzenesulfonyl)-6-methylpyridin-2-yl]-(4-methoxy-2-methylphenyl)-amine] | ≤ 100 nM
25 | CCc1ccc(S(=O)(=O)c2ccc(C)nc2Nc2ccc(OC)cc2OC)cc1 [Example 68, (2,4-Dimethoxyphenyl)-[3-(4-ethylbenzenesulfonyl)-6-methylpyridin-2-yl]-amine] | 100 to 500 nM
26 | CCc1ccc(S(=O)(=O)c2ccc(C)nc2Nc2cc(C)c(C)cc2C)cc1 [Example 70, [3-(4-Ethylbenzenesulfonyl)-6-methylpyridin-2-yl]-(2,4,5-trimethylphenyl)-amine] | ≤ 100 nM

Source: US7030145B2, “Pyridinyl derivatives for the treatment of depression” (Bristol-Myers Squibb Company, priority 2003, dated 2006)
